Read-outs that look alike come from different tables or passages of the source.
Tests used:
[1] = biological target: BTK (Homo sapiens, UniProt Q06187); experiment: Degradation of BTK protein in Namalwa cells (Western blot; DC50, Dmax); conditions: for DC50: cell line not given
[2] = tested on: Mino cells; experiment: Antiproliferative effect, MTS cell viability assay, Mino cells; format: cell-based; conditions: Homo sapiens, MINO, Mino mantle cell lymphoma cells; read-out: IC50 (anti-proliferation) Mino cells
Method in brief: (§1)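 Tested at six concentrations (0 to 10 μM in tenfold steps), 72 h; viability by MTS, A490.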

[3] = tested on: JeKo-1 cells; experiment: Antiproliferative effect, MTS cell viability assay, JeKo-1 cells; format: cell-based; conditions: Homo sapiens; JeKo-1 mantle cell lymphoma cells; read-out: IC50 (anti-proliferation) JeKO-1 cells
Method in brief: as §1

[4] = read-out: DC50 (BTK degradation), concentration giving 50% reduction of BTK expression level
[5] = read-out: Dmax (BTK degradation)

Sequence of BTK (Q06187 whole entry): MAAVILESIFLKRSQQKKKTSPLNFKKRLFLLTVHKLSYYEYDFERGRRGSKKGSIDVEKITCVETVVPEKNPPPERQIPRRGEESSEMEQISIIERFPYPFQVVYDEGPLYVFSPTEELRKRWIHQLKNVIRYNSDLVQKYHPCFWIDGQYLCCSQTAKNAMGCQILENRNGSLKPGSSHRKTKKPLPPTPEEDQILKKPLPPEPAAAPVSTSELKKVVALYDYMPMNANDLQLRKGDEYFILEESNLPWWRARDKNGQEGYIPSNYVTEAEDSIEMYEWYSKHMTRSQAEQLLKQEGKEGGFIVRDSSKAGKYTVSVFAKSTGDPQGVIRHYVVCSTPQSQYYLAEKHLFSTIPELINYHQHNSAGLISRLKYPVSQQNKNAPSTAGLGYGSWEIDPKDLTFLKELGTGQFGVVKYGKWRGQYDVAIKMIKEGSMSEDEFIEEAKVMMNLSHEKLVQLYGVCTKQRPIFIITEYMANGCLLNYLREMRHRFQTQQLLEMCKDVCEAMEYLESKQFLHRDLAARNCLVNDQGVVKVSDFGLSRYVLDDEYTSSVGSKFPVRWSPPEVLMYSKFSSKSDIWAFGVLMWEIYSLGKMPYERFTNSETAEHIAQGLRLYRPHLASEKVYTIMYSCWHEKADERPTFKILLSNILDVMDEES

Dmax [1] [%] | DC50 ([1]; BTK degradation) [nM] | DC50 [1, 4] [nM] | Dmax [1, 5] [%] | degradation of BTK protein ([1]; Namalwa B lymphocyte cells, various concentrations, 24 hours, Western blot) | Structure (SMILES) | IC50 [2] [nM] | IC50 [3] [nM]
> 50 | > 50 |  |  |  | NC(=O)c1c(-c2ccc(Oc3ccccc3)cc2)nn2c1NCCC2C1CCN(C2CCN(C(=O)N3CCN(Cc4ccc5c(c4)C(=O)N(C4CCC(=O)NC4=O)C5=O)CC3)CC2)CC1 (centres unmarked) [Compound 339, 7-(1′-(4-((2-(2,6-dioxopiperidin-3-yl)-1,3-dioxoisoindolin-5-yl)methyl)piperazine-1-carbonyl)-[1,4′-bipiperidin]-4-yl)-2-(4-phenoxyphenyl)-4,5,6,7-tetrahydropyrazolo[1,5-a]pyrimidine-3-carboxamide] | > 10000 | > 10000
 |  | 10 to 50 | > 90 |  | Nc1ncnc2c1c(-c1ccc(Oc3ccccc3)cc1)nn2C1CCN(CC2CCN(CC3CCN(c4ccc5c(c4)CN(C4CCC(=O)NC4=O)C5=O)C3)C2)CC1 (centres unmarked) [Compound 448, 3-(5-(3-((3-((4-(4-amino-3-(4-phenoxyphenyl)-1H-pyrazolo[3,4-d]pyrimidin-1-yl)piperidin-1-yl)methyl)pyrrolidin-1-yl)methyl)pyrrolidin-1-yl)-1-oxoisoindolin-2-yl)piperidine-2,6-dione] | 1000 to 10000 | 1000 to 10000
> 90 | < 10 |  |  |  | NC(=O)c1c(-c2ccc(Oc3ccccc3)cc2)nn2c1NCCC2C1CCN(C2CCN(C(=O)N3CCC(N4CCC(c5ccc6c(c5)CN(C5CCC(=O)NC5=O)C6=O)CC4)CC3)CC2)CC1 (centres unmarked) [Compound 348, 7-(1′-(4-(2-(2,6-dioxopiperidin-3-yl)-1-oxoisoindolin-5-yl)-[1,4′-bipiperidine]-1′-carbonyl)-[1,4′-bipiperidin]-4-yl)-2-(4-phenoxyphenyl)-4,5,6,7-tetrahydropyrazolo[1,5-a]pyrimidine-3-carboxamide] | < 1000 | < 1000
 |  | 10 to 50 | > 90 |  | NC1=NC=NC2C1C(c1ccc(Oc3ccccc3)cc1)=NN2C1CCN(C2CN(C(=O)N3CC(C4CN(c5ccc6c(c5)CN(C5CCC(=O)NC5=O)C6=O)C4)C3)C2)CC1 (centres unmarked) [Compound 500, 3-(5-(1′-(3-(4-(4-amino-3-(4-phenoxyphenyl)-3a,7a-dihydro-1H-pyrazolo[3,4-d]pyrimidin-1-yl)piperidin-1-yl)azetidine-1-carbonyl)-[3,3′-biazetidin]-1-yl)-1-oxoisoindolin-2-yl)piperidine-2,6-dione] | < 1000 | 1000 to 10000
> 90 | 10 to 50 |  |  |  | NC(=O)c1c(-c2ccc(Oc3ccccc3)cc2)nn2c1NCC[C@H]2C1CCN(C2CCN(C(=O)N3CCC(C4CCN(c5ccc6c(c5)C(=O)N(C5CCC(=O)NC5=O)C6=O)CC4)CC3)CC2)CC1 (stereo partly drawn) [Compound 383, (7S)-7-(1′-(1′-(2-(2,6-dioxopiperidin-3-yl)-1,3-dioxoisoindolin-5-yl)-[4,4′-bipiperidine]-1-carbonyl)-[1,4′-bipiperidin]-4-yl)-2-(4-phenoxyphenyl)-4,5,6,7-tetrahydropyrazolo[1,5-a]pyrimidine-3-carboxamide] | < 1000 | < 1000
> 90 | < 10 |  |  |  | NC(=O)c1c(-c2ccc(Oc3ccccc3)cc2)nn2c1NCC[C@H]2C1CCN(C(=O)N2CCC(CN3CCN(c4ccc5c(c4)CN(C4CCC(=O)NC4=O)C5=O)CC3)CC2)CC1 (stereo partly drawn) [Compound 292, (7S)-7-(1-(4-((4-(2-(2,6-dioxopiperidin-3-yl)-1-oxoisoindolin-5-yl)piperazin-1-yl)methyl)piperidine-1-carbonyl)piperidin-4-yl)-2-(4-phenoxyphenyl)-4,5,6,7-tetrahydropyrazolo[1,5-a]pyrimidine-3-carboxamide] | < 1000 | < 1000
 |  | 10 to 50 | > 90 |  | Nc1ncnc2c1c(-c1ccc(Oc3ccccc3)cc1)nn2C1CCN(C2CCN(CC3CN(c4ccc5c(c4)CN(C4CCC(=O)NC4=O)C5=O)C3)CC2)CC1 (centres unmarked) [Compound 434, 3-(5-(3-((4-(4-amino-3-(4-phenoxyphenyl)-1H-pyrazolo[3,4-d]pyrimidin-1-yl)-[1,4′-bipiperidin]-1′-yl)methyl)azetidin-1-yl)-1-oxoisoindolin-2-yl)piperidine-2,6-dione] | < 1000 | 1000 to 10000
> 75 | 10 to 50 |  |  |  | NC(=O)c1c(-c2ccc(Oc3ccccc3)cc2)nn2c1NCC[C@H]2C1CCN(C2CCN(CCN3CCC(c4ccc5c(c4)C(=O)N(C4CCC(=O)NC4=O)C5=O)CC3)CC2)CC1 (stereo partly drawn) [Compound 327, (7S)-7-(1′-(2-(4-(2-(2,6-dioxopiperidin-3-yl)-1,3-dioxoisoindolin-5-yl)piperidin-1-yl)ethyl)-[1,4′-bipiperidin]-4-yl)-2-(4-phenoxyphenyl)-4,5,6,7-tetrahydropyrazolo[1,5-a]pyrimidine-3-carboxamide] | 1000 to 10000 | > 10000
> 90 | 10 to 50 |  |  |  | NC(=O)c1c(-c2ccc(Oc3ccccc3)cc2)nn2c1NCCC2C1CCN(C2CCN(C(=O)N3CCN(CC4CCN(c5ccc6c(c5)C(=O)N(C5CCC(=O)NC5=O)C6=O)CC4)CC3)CC2)CC1 (centres unmarked) [Compound 351, 7-(1′-(4-((1-(2-(2,6-dioxopiperidin-3-yl)-1,3-dioxoisoindolin-5-yl)piperidin-4-yl)methyl)piperazine-1-carbonyl)-[1,4′-bipiperidin]-4-yl)-2-(4-phenoxyphenyl)-4,5,6,7-tetrahydropyrazolo[1,5-a]pyrimidine-3-carboxamide] | < 1000 | 1000 to 10000
 |  | < 10 | > 90 |  | NC(=O)c1c(-c2ccc(Oc3ccccc3)cc2)nn2c1NCC[C@H]2C1CCN(CC2CCN(C(=O)N3CCC(CN4CCN(c5ccc6c(c5)C(=O)N(C5CCC(=O)NC5=O)C6=O)CC4)CC3)CC2)CC1 (stereo partly drawn) [Compound 409, (7S)-7-(1-((1-(4-((4-(2-(2,6-dioxopiperidin-3-yl)-1,3-dioxoisoindolin-5-yl)piperazin-1-yl)methyl)piperidine-1-carbonyl)piperidin-4-yl)methyl)piperidin-4-yl)-2-(4-phenoxyphenyl)-4,5,6,7-tetrahydropyrazolo[1,5-a]pyrimidine-3-carboxamide] | < 1000 | 1000 to 10000
> 75 | > 50 |  |  |  | NC(=O)c1c(-c2ccc(Oc3ccccc3)cc2)nn2c1NCC[C@H]2C1CCN(CC2CCN(CCN3CCC(c4ccc5c(c4)C(=O)N(C4CCC(=O)NC4=O)C5=O)CC3)CC2)CC1 (stereo partly drawn) [Compound 335, (7S)-7-(1-((1-(2-(4-(2-(2,6-dioxopiperidin-3-yl)-1,3-dioxoisoindolin-5-yl)piperidin-1-yl)ethyl)piperidin-4-yl)methyl)piperidin-4-yl)-2-(4-phenoxyphenyl)-4,5,6,7-tetrahydropyrazolo[1,5-a]pyrimidine-3-carboxamide] | 1000 to 10000 | 1000 to 10000
> 90 | < 10 |  |  |  | Nc1ncnc2c1c(-c1ccc(Oc3ccccc3)cc1)nn2C1CCN(C2CCN(C(=O)N3CCC(N4CCN(c5ccc6c(c5)CN(C5CCC(=O)NC5=O)C6=O)CC4)CC3)CC2)CC1 (centres unmarked) [Compound 232, 3-(5-(4-(1-(4-(4-amino-3-(4-phenoxyphenyl)-1H-pyrazolo[3,4-d]pyrimidin-1-yl)-[1,4′-bipiperidine]-1′-carbonyl)piperidin-4-yl)piperazin-1-yl)-1-oxoisoindolin-2-yl)piperidine-2,6-dione] | 1000 to 10000 | 1000 to 10000
> 75 | 10 to 50 |  |  |  | NC(=O)c1c(-c2ccc(Oc3ccccc3)cc2)nn2c1NCCC2C1CCN(CC2CCN(C(=O)N3CCC(CN4CCC(c5ccc6c(c5)C(=O)N(C5CCC(=O)NC5=O)C6=O)CC4)CC3)CC2)CC1 (centres unmarked) [Compound 375, 7-(1-((1-(4-((4-(2-(2,6-dioxopiperidin-3-yl)-1,3-dioxoisoindolin-5-yl)piperidin-1-yl)methyl)piperidine-1-carbonyl)piperidin-4-yl)methyl)piperidin-4-yl)-2-(4-phenoxyphenyl)-4,5,6,7-tetrahydropyrazolo[1,5-a]pyrimidine-3-carboxamide] | 1000 to 10000 | 1000 to 10000
 |  | < 10 | > 90 | dose-dependent degradation | Nc1ncnc2c1c(-c1ccc(Oc3ccccc3)cc1)nn2[C@@H]1CCCN(C2CCN(C(=O)N3CC(N4CCN(c5ccc6c(c5)CN(C5CCC(=O)NC5=O)C6=O)CC4)C3)CC2)C1 (stereo partly drawn) [Compound 476, 3-(5-(4-(1-((R)-3-(4-amino-3-(4-phenoxyphenyl)-1H-pyrazolo[3,4-d]pyrimidin-1-yl)-[1,4′-bipiperidine]-1′-carbonyl)azetidin-3-yl)piperazin-1-yl)-1-oxoisoindolin-2-yl)piperidine-2,6-dione] | < 1000 | < 1000
> 90 | 10 to 50 |  |  |  | Nc1ncnc2c1c(-c1ccc(Oc3ccccc3)cc1)nn2C1CCN(CC2CCN(CCN3CCC(c4ccc5c(c4)C(=O)N(C4CCC(=O)NC4=O)C5=O)CC3)CC2)CC1 (centres unmarked) [Compound 205, 5-(1-(2-(4-((4-(4-amino-3-(4-phenoxyphenyl)-1H-pyrazolo[3,4-d]pyrimidin-1-yl)piperidin-1-yl)methyl)piperidin-1-yl)ethyl)piperidin-4-yl)-2-(2,6-dioxopiperidin-3-yl)isoindoline-1,3-dione] | < 1000 | 1000 to 10000
> 90 | < 10 |  |  |  | NC(=O)c1c(-c2ccc(Oc3ccccc3)cc2)nn2c1NCCC2C1CCN(C2CCN(C(=O)N3CCC(CN4CCN(c5ccc6c(c5)CN(C5CCC(=O)NC5=O)C6=O)CC4)CC3)CC2)CC1 (centres unmarked) [Compound 350, 7-(1′-(4-((4-(2-(2,6-dioxopiperidin-3-yl)-1-oxoisoindolin-5-yl)piperazin-1-yl)methyl)piperidine-1-carbonyl)-[1,4′-bipiperidin]-4-yl)-2-(4-phenoxyphenyl)-4,5,6,7-tetrahydropyrazolo[1,5-a]pyrimidine-3-carboxamide] | < 1000 | 1000 to 10000
